# Patent publication US12667581B2, “Therapeutics for treatment of COVID-19 symptoms” (The Texas A&M University System, priority 2020, dated 2026)
# What was measured:
# Type in all cases: in vivo, C57BL/6 mice
# [1] = tested on: Mouse Model of CALD (ORN06 oropharyngeal aspiration); assay: Total cells in BALF, ORN06 mouse model of CALD; conditions: i.p. at 24 and 48 hours after ORN06 insult (DANA 10 mg/kg, AMPCA 0.1 mg/kg); BALF at day 3; FIG. 1
# [2] = tested on: Mouse Model of CALD (ORN06 oropharyngeal aspiration); assay: Percentage of alveolar airspace area occupied by exudate, ORN06 mouse model of CALD; conditions: lung cryosections; i.p. at 24 and 48 hours after ORN06 (DANA 10 mg/kg, AMPCA 0.1 mg/kg); day 3; FIG. 8
# Procedure: (§1) To determine if DANA or AMPCA affect CALD symptoms in mice, 5 week old 20 g male and female C57BL/6 mice (#000664; Jackson Laboratories, Bar Harbor, ME) were given an oropharyngeal aspiration of 1 mg/kg (20 μg/mouse) ORN06/LyoVec (LyoVec protects the ssRNA from degradation and facilitates cellular uptake) (InvivoGen, San Diego, CA) in 50 μl phosphate-buffered saline (PBS) to induce symptoms of pulmonary inflammation, or an oropharyngeal aspiration of an equal volume of PBS as a control, following Current protocols in mouse biology 2, 167-175 (2012). […]
# (§2) After collecting BALF, the lungs from the mice were harvested and inflated with Surgipath frozen section compound (#3801480, Leica, Buffalo Grove, IL) and preserved at −80° C. […] Image quantification was done using Image J (NIH, Bethesda, MD). […] Using ‘ Straight’ command, the length of the alveolar wall on the image was measured and was recorded with the ‘Measure’ command. 8 measurements of the alveolar wall thickness were recorded for each image. […]
# Using the Threshold function and the Measure Tool in NIH ImageJ, the percent area of each 20× objective image of lung cryosections described above containing tissue (not counting pale pink exudates) was measured, and this percentage was subtracted from 100% to obtain the percent area of the image occupied by the alveolar airspace. […]
# [3] = tested on: Mouse Model of CALD (ORN06 oropharyngeal aspiration); assay: BALF cell types by immunochemistry on cell spots, ORN06 mouse model of CALD; conditions: i.p. at 24 and 48 hours after ORN06 (DANA 10 mg/kg, AMPCA 0.1 mg/kg), day 3, FIG. 3
# Procedure: (§3) To determine if DANA or AMPCA affect CALD symptoms in mice, 5 week old 20 g male and female C57BL/6 mice (#000664; Jackson Laboratories, Bar Harbor, ME) were given an oropharyngeal aspiration of 1 mg/kg (20 μg/mouse) ORN06/LyoVec (LyoVec protects the ssRNA from degradation and facilitates cellular uptake) (InvivoGen, San Diego, CA) in 50 μl phosphate-buffered saline (PBS) to induce symptoms of pulmonary inflammation, or an oropharyngeal aspiration of an equal volume of PBS as a control, following Current protocols in mouse biology 2, 167-175 (2012). At 24 and 48 hours after ORN06 insult, some of ORN06-treated mice were given intraperitoneal injections of 100 μl PBS, or 10 mg/kg of DANA (N-Acetyl-2,3-dehydro-2-deoxyneuraminic acid; #252926-10MG, EMD, Millipore, Burlington, MA) or 0.1 mg/kg of 2-piperidinecarboxylic acid, 4-amino-1-methyl (AMPCA, #A00285-13785-026, Sundia, Shanghai, China) in 100 μl PBS. The DANA was dissolved in water to 2.5 mg/ml, and then diluted in PBS The AMPCA was dissolved directly in PBS. At day 3, mice were euthanized by CO2 inhalation, and BALF was obtained as previously described in Current protocols in mouse biology 2, 167-175 (2012); Proceedings of the National Academy of Sciences of the United States of America 112, 8385-8390 (2015); Public Library of Science ONE 9, e93730 (2014); and Nature Scientific Reports 8; 7 (1):15069 (2017). The experiment was performed in accordance with the recommendations in the Guide for the Care and use of Laboratory Animals of the National Institutes of Health. The Texas A&M University Animal Use and Care Committee approved the protocol.
# Immunochemistry on BALF cell spots and counts of cells was performed as described previously in Public Library of Science ONE 9, e93730 (2014); Proceedings of the National Academy of Sciences of the United States of America 112, 8385-8390 (2015); Nature Scientific Reports 8; 7 (1):15069 (2017); American Journal of Physiology Lung Cellular and Molecular Physiology, 1; 318 (1)1,165-L179 (2020) using anti-CD3 (100202, clone 17A2, BioLegend, San Diego, CA) to detect T-cells, anti-CD11b (101202, clone M1/70, BioLegend) to detect blood and inflammatory macrophages, anti-CD11c (M100-3, clone 223H7, MBL International, Woburn, MA) to detect alveolar macrophages and dendritic cells, anti-CD45 (103102, clone 30-F11, BioLegend) for total leukocytes, anti-Ly6G (127602, clone 1A8, BioLegend) to detect neutrophils, with isotype-matched irrelevant rat antibodies diluted to 5 μg/ml in PBS containing 2% (w:v) bovine serum albumin (PBS-BSA) (VWR, Radnor, PA). Cells were then incubated in coplin jars containing PBS, with 6 changes of buffer over 30 minutes. […] Using a 40× objective, at least 100 cells from each stained BALF spot were examined and the percent positive cells was recorded.
# [4] = tested on: Mouse Model of CALD (ORN06 oropharyngeal aspiration); assay: Alveolar wall thickness in H&E-stained lung cryosections, ORN06 mouse model of CALD; conditions: i.p. at 24 and 48 hours after ORN06 (DANA 10 mg/kg, AMPCA 0.1 mg/kg), day 3, FIGS. 5 and 6
# Procedure: as §1, with “(2012). At 24 and 48 hours after ORN06 insult, some of ORN06-treated mice were given intraperitoneal injections of 100 μl PBS, or 10 mg/kg of DANA (N-Acetyl-2,3-dehydro-2-deoxyneuraminic acid; #252926-10MG, EMD, Millipore, Burlington, MA) or 0.1 mg/kg of 2-piperidinecarboxylic acid, 4-amino-1-methyl (AMPCA, #A00285-13785-026, Sundia, Shanghai, China) in 100 μl PBS.” for “(2012).”
# as §2
# [5] = tested on: Mouse Model of COVID-19-Like Cytokine Storm (ORN06); assay: Serum cytokine levels (LEGENDplex Mouse Inflammation Panel), ORN06 mouse model; conditions: AMPCA 0.1 mg/kg i.p. at 24 and 48 hours after ORN06, serum at day 3
# Procedure: as §3
# Serum samples collected at day 3 post control or ORN06 insult were processed following the manufacturer's protocol. (#740150, LEGENDplex Mouse Inflammation Panel (13-plex), Biolegend, San Diego, CA) for simultaneous quantification of mouse cytokines using an Accuri C6 (BD Bioscience, Franklin Lakes, NJ) flow cytometer.
# [6] = tested on: Mouse Model of CALD (ORN06 oropharyngeal aspiration); assay: Percent of exudate-containing alveoli in lung cryosections, ORN06 mouse model of CALD; conditions: male mice, i.p. at 24 and 48 hours after ORN06 (DANA 10 mg/kg, AMPCA 0.1 mg/kg), day 3, FIG. 7
# Procedure: as §1, with “(2012). At 24 and 48 hours after ORN06 insult, some of ORN06-treated mice were given intraperitoneal injections of 100 μl PBS, or 10 mg/kg of DANA (N-Acetyl-2,3-dehydro-2-deoxyneuraminic acid; #252926-10MG, EMD, Millipore, Burlington, MA) or 0.1 mg/kg of 2-piperidinecarboxylic acid, 4-amino-1-methyl (AMPCA, #A00285-13785-026, Sundia, Shanghai, China) in 100 μl PBS.” for “(2012).”
# as §2
# [7] = tested on: Mouse Model of CALD (ORN06 oropharyngeal aspiration); assay: Clot-like aggregates in BALF cell spots, ORN06 mouse model of CALD; conditions: male mice; irregularly shaped 2-10 μm object staining dark blue with Wright-Giemsa; i.p. at 24 and 48 hours after ORN06 (DANA 10 mg/kg, AMPCA 0.1 mg/kg); day 3; FIG. 4
# [8] = tested on: Mouse Model of CALD (ORN06 oropharyngeal aspiration); assay: BALF cell types by Wright-Giemsa staining, ORN06 mouse model of CALD; conditions: for ORN06-induced increase in the number of monocyte/macrophages in the BALF / counts of specific cell types in the BALF, treated groups versus Control group: i.p. at 24 and 48 hours after ORN06 (DANA 10 mg/kg, AMPCA 0.1 mg/kg); for ORN06-induced increase in the number of monocyte/macrophages in the BALF: day 3, FIG. 2A; for counts of specific cell types in the BALF, treated groups versus Control group: day 3, FIG. 2A-C
# Procedure: as §3
# Total cells in the BALF were then quantified. The BALF cells were processed to prepare cell spots as described previously in Public Library of Science ONE 9, e93730 (2014), Nature Scientific Reports 8; 7 (1):15069 (2017); American Journal of Physiology Lung Cellular and Molecular Physiology, 1; 318 (1):L165-L179 (2020). After air drying for 48 hours at room temperature, some of the prepared BALF cell spots were fixed and treated with Wright-Giemsa stain (#08711, Polysciences, Inc., Warrington, PA) following the manufacturer's instructions. One hundred and fifty cells per mouse were examined and quantified for cell type following the manufacturer's instructions. Imaging of BALF cell spots stained with Wright-Giemsa stain was done with a Nikon Eclipse Ti2 microscope.
SMILES,ORN06-induced increase in the number of cells in the BALF [1],"number of cells in the BALF, treated groups versus Control group [1]",percentage of the alveolar airspace area occupied by exudate [2],ORN06-induced increase in the number of CD11c positive macrophages and/or dendritic cells in the BALF [3],ORN06-induced increase in the number of CD45-positive leukocytes in the BALF [3],ORN06-induced alveolar wall thickness increase [4],serum levels of IL-1β ([5]; FIG. 9A),serum levels of IL-6 ([5]; FIG. 9B),serum levels of IL-12p70 ([5]; FIG. 9C),serum levels of IL-23 ([5]; FIG. 9D),serum levels of IL-27 ([5]; FIG. 9E),percentage of exudate-containing alveoli [6],clot-like aggregates in the BAL cell spots [7],"ORN06-induced increase in the number of lymphocytes in the BALF ([8]; AMPCA 0.1 mg/kg i.p. at 24 and 48 hours after ORN06, day 3, FIG. 2B)",ORN06-induced increase in the number of monocyte/macrophages in the BALF [8],"counts of specific cell types in the BALF, treated groups versus Control group [8]"
"CN1CCC(N)CC1C(=O)O (centres unmarked) [AMPCA, 4-amino-1-methyl-2-piperidine carboxylic acid]",ameliorated the ORN06-induced increase in the number of cells in the BALF,no significant difference,decreased the percentage of the alveolar airspace area occupied by exudate,decreased the ORN06-induced increase in the number of CD11c positive macrophages and/or dendritic cells,decreased the ORN06-induced increase,significantly reduced,decreased the serum levels of both cytokines,decreased the serum levels of both cytokines,decreased the serum levels of IL-12p70,decreased the serum levels,decreased the serum levels,decreased the percentage of exudate-containing alveoli,No clot-like aggregates were observed,decreased the ORN06-induced increase in the number of monocyte/macrophages and lymphocytes,decreased the ORN06-induced increase in the number of monocyte/macrophages,no significant difference
"CC(=O)N[C@H]1[C@H]([C@H](O)[C@H](O)CO)OC(C(=O)O)=C[C@@H]1O [DANA, 2-deoxy-2,3-didehydro-N-acetylneuraminic acid]",ameliorated the ORN06-induced increase in the number of cells in the BALF,no significant difference,decreased the percentage of the alveolar airspace area occupied by exudate,decreased the ORN06-induced increase in the number of CD11c positive macrophages and/or dendritic cells,decreased the ORN06-induced increase,significantly reduced,–,–,–,–,–,decreased the percentage of exudate-containing alveoli,no clot-like aggregates were observed in the BAL cell spots from 2 of the 3,–,decreased the ORN06-induced increase in the number of monocyte/macrophages,no significant difference
